# Test results: US20060165798A1, “Oral osmotic dosage form having a high flux membrane” (priority 2005, published 2006)
# Type: physicochemical
# Protocol: The measured values for the tested systems were Δπ=245 atmospheres, A=2.41 cm^2, S=333 mg/ ml. Thickness of the membrane was measured directly with a table micrometer. Osmotic pressure was measured on saturated solutions of potassium chloride at 37° C. using a Knauer model VPO vapor pressure osmometer and standard reference solutions of known osmotic pressure for comparison. Surface area of the tablet core was determined by first measuring the dimensions of the tablet core and then calculating surface area using standard mensuration formulae. Drug solubility was determined by measuring the concentration of a saturated solution of potassium chloride by conductivity analysis using a conductivity meter and reference solutions of potassium chloride of known aqueous concentrations. Average release rate was calculated by measuring the mass of potassium chloride released per 2-hour intervals of time according to the experimental procedures described in Example 3. Then, the total mass of potassium chloride released was summed for all whole 2-hour intervals between 20% and 70% (100 mg to 350 mg of potassium chloride) of the initial dose present within the dosage form (500 mg). Finally, the total mass of drug released during these whole intervals was divided by the sum of these time intervals to arrive at the average release rate. […]
structure (smiles),measurement,setting,value
[Cl-].[K+] [potassium chloride],drug solubility S,saturated aqueous solution,333 mg/mL
same,osmotic pressure Δπ,saturated solution at 37° C.,245 atmospheres
